# Measurements taken from ChEMBL document CHEMBL2203179, “New diarylureas and diarylamides possessing acet(benz)amidophenyl scaffold: design, synthesis, and antiproliferative activity against melanoma cell line” (Bioorg Med Chem Lett, 2012).
# Experiment: Antiproliferative activity against human A375P cells
# Type: functional, cell-based
row,SMILES,IC50 [µM]
1,Cc1ccc(NC(=O)Nc2ccc(C)c(NC(=O)c3ccccc3)c2)cc1C,> 30
2,Cc1ccc(NC(=O)Nc2ccccc2Cl)cc1NC(=O)c1ccccc1,> 30
3,Cc1ccc(NC(=O)Nc2ccc(Cl)c(Cl)c2)cc1NC(=O)c1ccccc1,5.8
4,Cc1ccc(NC(=O)Nc2cc(Cl)cc(Cl)c2)cc1NC(=O)c1ccccc1,0.259
5,Cc1ccc(NC(=O)Nc2cc(C(F)(F)F)cc(C(F)(F)F)c2)cc1NC(=O)c1ccccc1,0.162
6,Cc1ccc(NC(=O)Nc2ccc(Cl)c(C(F)(F)F)c2)cc1NC(=O)c1ccccc1,1.3
7,Cc1ccc(NC(=O)Nc2cc(F)cc(C(F)(F)F)c2)cc1NC(=O)c1ccccc1,> 30
8,CC(=O)c1cccc(NC(=O)Nc2ccc(C)c(NC(=O)c3ccccc3)c2)c1,9.8
9,Cc1ccc(NC(=O)Nc2cccc(Oc3ccccc3)c2)cc1NC(=O)c1ccccc1,> 30
10,Cc1ccc(NC(=O)Nc2ccc3c(c2)OCO3)cc1NC(=O)c1ccccc1,> 30
11,Cc1ccc(NC(=O)Nc2ccc3c(c2)OCCO3)cc1NC(=O)c1ccccc1,> 30
12,Cc1ccc(NC(=O)Nc2ccc(Cl)nc2)cc1NC(=O)c1ccccc1,1.6
13,CC(=O)Nc1cc(NC(=O)c2cc(C(F)(F)F)cc(C(F)(F)F)c2)ccc1C,> 30
14,CC(=O)Nc1cc(NC(=O)c2ccc(Cl)c(C(F)(F)F)c2)ccc1C,> 30
15,CC(=O)Nc1cc(NC(=O)c2ccc3c(c2)OCCO3)ccc1C,12.9
16,CC(=O)Nc1cc(NC(=O)c2cc(C)on2)ccc1C,> 30
17,CC(=O)Nc1cc(NC(=O)c2cc(=O)c3ccccc3o2)ccc1C,> 30
18,Cc1ccc(NC(=O)c2cc(C(F)(F)F)cc(C(F)(F)F)c2)cc1NC(=O)c1ccccc1,> 30

row,SMILES,IC50 [µM]
1,Cc1ccc(NC(=O)c2ccc(Cl)c(C(F)(F)F)c2)cc1NC(=O)c1ccccc1,> 30
2,Cc1ccc(NC(=O)c2ccc3c(c2)OCCO3)cc1NC(=O)c1ccccc1,> 30
3,Cc1cc(C(=O)Nc2ccc(C)c(NC(=O)c3ccccc3)c2)no1,> 30
4,Cc1ccc(NC(=O)c2cc(=O)c3ccccc3o2)cc1NC(=O)c1ccccc1,> 30
5,CC(=O)Nc1cc(NC(=O)Nc2ccccc2Cl)ccc1C,> 30
6,CC(=O)Nc1cc(NC(=O)Nc2ccc(Cl)c(Cl)c2)ccc1C,2.1
7,CC(=O)Nc1cc(NC(=O)Nc2cc(Cl)cc(Cl)c2)ccc1C,0.561
8,CC(=O)Nc1cc(NC(=O)Nc2cc(C(F)(F)F)cc(C(F)(F)F)c2)ccc1C,0.685
9,CC(=O)Nc1cc(NC(=O)Nc2ccc(Cl)c(C(F)(F)F)c2)ccc1C,1.1
10,CC(=O)Nc1cc(NC(=O)Nc2cc(F)cc(C(F)(F)F)c2)ccc1C,> 30
11,CC(=O)Nc1cc(NC(=O)Nc2ccc(C)c(C)c2)ccc1C,> 30
12,CC(=O)Nc1cc(NC(=O)Nc2cccc(C(C)=O)c2)ccc1C,22.1
13,CC(=O)Nc1cc(NC(=O)Nc2cccc(Oc3ccccc3)c2)ccc1C,> 30
14,CC(=O)Nc1cc(NC(=O)Nc2ccc3c(c2)OCO3)ccc1C,> 30
15,CC(=O)Nc1cc(NC(=O)Nc2ccc3c(c2)OCCO3)ccc1C,> 30
16,CC(=O)Nc1cc(NC(=O)Nc2ccc(Cl)nc2)ccc1C,1.1
17,CNC(=O)c1cc(Oc2ccc(NC(=O)Nc3ccc(Cl)c(C(F)(F)F)c3)cc2)ccn1 [SORAFENIB],2.7

# Experiment: Ratio of IC50 for vemurafenib IC50 to compound IC50 for human A375P cells
# Type: functional
row,SMILES,Ratio IC50
1,Cc1ccc(NC(=O)Nc2cc(C(F)(F)F)cc(C(F)(F)F)c2)cc1NC(=O)c1ccccc1,1.57
